Experimental data published in ChEMBL document CHEMBL1137374, “Discovery of 6-N,N-bis(2,2,2-trifluoroethyl)amino- 4-trifluoromethylquinolin-2(1H)-one as a novel selective androgen receptor modulator” (J Med Chem, 2006).
Calls of active or inactive are those of the source. The rule behind the calls is not given here.

Columns and labels:
Androgen receptor [1] = biological target: T1, Androgen receptor (Homo sapiens, UniProt P10275)
T1 sequence (P10275 whole entry): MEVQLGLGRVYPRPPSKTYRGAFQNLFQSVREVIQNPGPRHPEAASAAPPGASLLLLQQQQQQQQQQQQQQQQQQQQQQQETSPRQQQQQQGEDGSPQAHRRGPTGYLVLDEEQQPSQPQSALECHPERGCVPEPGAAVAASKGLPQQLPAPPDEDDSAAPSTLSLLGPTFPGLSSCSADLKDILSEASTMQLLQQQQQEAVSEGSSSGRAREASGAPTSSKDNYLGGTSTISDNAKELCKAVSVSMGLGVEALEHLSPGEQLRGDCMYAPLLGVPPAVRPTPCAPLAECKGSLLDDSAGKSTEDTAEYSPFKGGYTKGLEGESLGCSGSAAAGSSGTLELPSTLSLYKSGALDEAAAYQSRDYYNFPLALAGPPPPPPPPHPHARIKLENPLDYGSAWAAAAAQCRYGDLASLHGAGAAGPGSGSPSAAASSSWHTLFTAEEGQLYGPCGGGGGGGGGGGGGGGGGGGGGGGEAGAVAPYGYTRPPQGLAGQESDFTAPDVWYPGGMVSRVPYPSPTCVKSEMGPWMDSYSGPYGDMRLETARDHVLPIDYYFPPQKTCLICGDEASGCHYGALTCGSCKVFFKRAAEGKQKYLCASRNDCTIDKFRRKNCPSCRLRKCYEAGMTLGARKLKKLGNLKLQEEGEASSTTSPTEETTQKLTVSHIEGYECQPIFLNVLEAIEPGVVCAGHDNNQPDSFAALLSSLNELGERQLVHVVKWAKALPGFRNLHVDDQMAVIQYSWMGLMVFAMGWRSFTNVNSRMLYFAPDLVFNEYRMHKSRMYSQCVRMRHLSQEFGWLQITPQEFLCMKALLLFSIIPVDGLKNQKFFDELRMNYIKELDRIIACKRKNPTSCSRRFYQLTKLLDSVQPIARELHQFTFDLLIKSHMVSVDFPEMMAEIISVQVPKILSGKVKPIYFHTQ
Description: Agonist activity at human androgen receptor in CV1 cells measured as stimulation of luciferase reporter gene activity by cotransfection assay

Androgen receptor [2] = biological target: T1, Androgen receptor; remark: listed apart in the source
Description: Antagonist activity against human androgen receptor in CV1 cells measured as inhibition of DHT-stimulated luciferase reporter gene activity by cotransfection assay

Androgen receptor [3] = biological target: T1, Androgen receptor; remark: listed apart in the source
Description: Displacement of [3H]DHT from human androgen receptor expressed in MDA-MB-453 cells by whole cell receptor binding assay

Glucocorticoid receptor = biological target: T2, Glucocorticoid receptor (Homo sapiens, UniProt P04150); experiment: Binding affinity to glucocorticoid receptor
T2 sequence (P04150 whole entry): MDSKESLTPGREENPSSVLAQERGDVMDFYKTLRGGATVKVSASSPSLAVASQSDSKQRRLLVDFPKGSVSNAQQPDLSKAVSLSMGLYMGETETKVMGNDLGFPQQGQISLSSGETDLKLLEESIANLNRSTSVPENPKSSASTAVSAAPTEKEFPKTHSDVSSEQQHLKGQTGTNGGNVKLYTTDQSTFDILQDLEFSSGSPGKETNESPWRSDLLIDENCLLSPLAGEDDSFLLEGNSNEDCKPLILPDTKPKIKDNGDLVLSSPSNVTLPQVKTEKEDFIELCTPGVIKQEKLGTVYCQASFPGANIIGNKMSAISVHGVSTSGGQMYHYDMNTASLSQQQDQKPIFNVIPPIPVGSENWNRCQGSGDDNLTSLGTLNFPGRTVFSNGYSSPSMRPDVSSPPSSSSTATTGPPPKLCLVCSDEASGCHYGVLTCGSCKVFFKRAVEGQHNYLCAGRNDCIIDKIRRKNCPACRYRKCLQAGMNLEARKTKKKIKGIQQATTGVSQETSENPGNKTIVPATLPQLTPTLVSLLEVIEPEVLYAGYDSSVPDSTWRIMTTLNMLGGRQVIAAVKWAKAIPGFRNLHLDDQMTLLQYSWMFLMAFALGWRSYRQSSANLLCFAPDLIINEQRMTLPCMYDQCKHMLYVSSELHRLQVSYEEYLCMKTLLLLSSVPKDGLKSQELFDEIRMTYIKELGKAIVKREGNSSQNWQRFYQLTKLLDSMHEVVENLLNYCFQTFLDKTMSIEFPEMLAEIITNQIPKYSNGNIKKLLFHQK

[4] = biological target: T3, Mineralocorticoid receptor (Homo sapiens, UniProt P08235); experiment: Binding affinity to mineralocorticoid receptor
T3 sequence (P08235 whole entry): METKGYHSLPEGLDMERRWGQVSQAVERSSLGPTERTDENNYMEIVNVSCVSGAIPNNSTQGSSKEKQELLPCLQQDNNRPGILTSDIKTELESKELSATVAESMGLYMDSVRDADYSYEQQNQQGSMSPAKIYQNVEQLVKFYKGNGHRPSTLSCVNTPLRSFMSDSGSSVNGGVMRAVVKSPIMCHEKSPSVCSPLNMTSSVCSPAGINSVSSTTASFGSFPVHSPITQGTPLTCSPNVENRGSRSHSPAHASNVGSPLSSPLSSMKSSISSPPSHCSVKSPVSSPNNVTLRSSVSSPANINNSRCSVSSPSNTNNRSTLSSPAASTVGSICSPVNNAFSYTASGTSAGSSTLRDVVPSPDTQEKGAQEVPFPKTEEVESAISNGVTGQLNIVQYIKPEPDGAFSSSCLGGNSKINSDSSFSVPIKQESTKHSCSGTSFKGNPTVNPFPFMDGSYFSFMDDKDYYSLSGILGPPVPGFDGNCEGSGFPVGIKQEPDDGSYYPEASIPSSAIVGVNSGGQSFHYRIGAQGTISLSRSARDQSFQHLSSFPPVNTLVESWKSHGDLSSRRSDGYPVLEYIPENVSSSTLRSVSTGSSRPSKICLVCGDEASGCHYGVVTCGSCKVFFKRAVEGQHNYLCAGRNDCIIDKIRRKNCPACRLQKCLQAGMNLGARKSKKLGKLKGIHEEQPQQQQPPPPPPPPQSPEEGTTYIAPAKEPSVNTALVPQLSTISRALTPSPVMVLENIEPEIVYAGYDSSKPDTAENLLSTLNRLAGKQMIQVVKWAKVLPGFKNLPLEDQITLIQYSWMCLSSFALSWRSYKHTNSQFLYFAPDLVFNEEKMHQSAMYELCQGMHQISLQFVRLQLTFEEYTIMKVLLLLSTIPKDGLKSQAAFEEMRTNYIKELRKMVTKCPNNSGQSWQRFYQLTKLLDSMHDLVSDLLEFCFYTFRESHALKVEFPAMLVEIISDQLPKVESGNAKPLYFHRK

Rattus norvegicus [5] = experiment: Anabolic activity in orchidectomized rat at 3.0 mg/kg, po measured as increase in levator ani muscle weight to eugonadal level; type: functional, organism-based; parameters: dose 3 mg/kg
Estrogen receptor = biological target: T4, Estrogen receptor (Homo sapiens, UniProt P03372)
T4 sequence (P03372 whole entry): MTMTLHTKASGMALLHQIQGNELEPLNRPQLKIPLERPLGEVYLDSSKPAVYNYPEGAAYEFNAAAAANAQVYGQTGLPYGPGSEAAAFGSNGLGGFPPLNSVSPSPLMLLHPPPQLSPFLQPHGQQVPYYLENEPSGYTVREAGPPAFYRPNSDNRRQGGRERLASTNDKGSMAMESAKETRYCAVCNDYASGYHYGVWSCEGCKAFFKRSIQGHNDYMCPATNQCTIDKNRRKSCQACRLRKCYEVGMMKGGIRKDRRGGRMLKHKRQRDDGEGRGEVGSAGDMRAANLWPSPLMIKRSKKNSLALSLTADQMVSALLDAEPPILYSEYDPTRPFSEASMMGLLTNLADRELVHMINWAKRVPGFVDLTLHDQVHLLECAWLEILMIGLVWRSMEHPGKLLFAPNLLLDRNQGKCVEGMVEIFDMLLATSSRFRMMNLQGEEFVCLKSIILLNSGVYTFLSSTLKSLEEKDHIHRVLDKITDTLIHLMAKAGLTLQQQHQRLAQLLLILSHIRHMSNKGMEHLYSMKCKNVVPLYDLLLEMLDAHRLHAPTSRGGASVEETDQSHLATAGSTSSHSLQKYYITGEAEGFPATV
Description: Binding affinity to estrogen receptor

Progesterone receptor = biological target: T5, Progesterone receptor (Homo sapiens, UniProt P06401)
T5 sequence (P06401 whole entry): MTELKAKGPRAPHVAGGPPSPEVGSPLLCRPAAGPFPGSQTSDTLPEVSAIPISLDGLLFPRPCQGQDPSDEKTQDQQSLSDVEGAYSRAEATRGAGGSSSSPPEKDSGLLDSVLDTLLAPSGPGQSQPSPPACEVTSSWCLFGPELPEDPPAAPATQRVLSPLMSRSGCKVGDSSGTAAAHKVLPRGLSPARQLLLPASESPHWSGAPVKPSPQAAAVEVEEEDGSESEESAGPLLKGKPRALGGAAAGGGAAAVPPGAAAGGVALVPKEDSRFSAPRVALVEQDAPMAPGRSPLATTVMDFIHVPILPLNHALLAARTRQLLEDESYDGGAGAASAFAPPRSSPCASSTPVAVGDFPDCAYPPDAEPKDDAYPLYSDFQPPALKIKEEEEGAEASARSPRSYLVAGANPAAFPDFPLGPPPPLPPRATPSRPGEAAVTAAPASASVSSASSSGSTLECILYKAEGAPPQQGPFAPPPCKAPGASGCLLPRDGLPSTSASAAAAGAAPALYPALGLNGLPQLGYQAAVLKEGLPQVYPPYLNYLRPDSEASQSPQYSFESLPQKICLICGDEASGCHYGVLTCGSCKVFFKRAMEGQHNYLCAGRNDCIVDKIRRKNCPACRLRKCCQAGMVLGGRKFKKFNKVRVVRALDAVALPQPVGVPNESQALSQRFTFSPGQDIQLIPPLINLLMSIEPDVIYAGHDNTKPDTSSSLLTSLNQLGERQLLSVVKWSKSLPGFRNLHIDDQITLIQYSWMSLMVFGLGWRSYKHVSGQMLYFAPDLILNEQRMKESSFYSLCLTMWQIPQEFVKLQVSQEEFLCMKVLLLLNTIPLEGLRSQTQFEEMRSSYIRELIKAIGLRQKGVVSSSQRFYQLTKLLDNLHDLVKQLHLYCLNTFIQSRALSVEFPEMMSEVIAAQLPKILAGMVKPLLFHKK
Description: Binding affinity to progesterone receptor

Rattus norvegicus [6] = experiment: Androgenic activity in orchidectomized rat at 100 mg/kg, po measured as increase in ventral prostate weight to intact level; type: functional, organism-based; parameters: dose 100 mg/kg; settings: Prostate gland
Rattus norvegicus [7] = species on record: Rattus norvegicus; experiment: Anabolic activity in orchidectomized rat measured as increase in levator ani muscle weight relative to intact rat; type: functional
Rattus norvegicus [8] = experiment: Anabolic activity in orchidectomized rat at 2.0 mg/kg, sc measured as increase in levator ani muscle weight to eugonadal level; type: functional, organism-based; parameters: dose 2 mg/kg
Rattus norvegicus [9] = experiment: Androgenic activity in orchidectomized rat at 2.0 mg/kg, sc measured as increase in ventral prostate weight to eugonadal level; type: functional, organism-based; parameters: dose 2 mg/kg; settings: Prostate gland

Oc1cc(C(F)(F)F)c2cc(N(CC3CC3)CC(F)(F)F)ccc2n1
EC50 (Androgen receptor [1]): 0.0028 µM
IC50 (Androgen receptor [2]): > 10 µM
Ki (Androgen receptor [3]): 0.0071 µM

O=c1cc(C(F)(F)F)c2cc(N(CC(F)(F)F)CC(F)(F)F)ccc2[nH]1
Ki (Glucocorticoid receptor): > 1 µM
Ki [4]: > 1 µM
Activity (Rattus norvegicus [5]): Active
Ki (Estrogen receptor): > 1 µM
Ki (Progesterone receptor): > 1 µM
Activity (Rattus norvegicus [6]): Active
Activity (Rattus norvegicus [7]): 150%

C[C@]12CC[C@H]3[C@@H](CCC4=CC(=O)CC[C@@]43C)[C@@H]1CC[C@@H]2O
Activity (Rattus norvegicus [8]): Active
Activity (Rattus norvegicus [9]): Active
